# Measurements reported in patent US20090081192A1, “METHODS OF SCREENING FOR COMPOUNDS HAVING ANTI-INFLAMMATORY ACTIVITY” (FIBREX MEDICAL RESEARCH & DEVELOPMENT GMBH, priority 2007, published 2009).
# Marks after values point to notes of the source that are not given here.
# Assays:
# Assay type in all cases: cell-based, human
# Rac1 = Rac1 activation pull-down assay in HUVECs; conditions: HUVEC, substance alone, test compound 50 μg/ml
# Description: (§1) The useful methods of analysing the activation status of Rac1 and RhoA are based on the principle of the so-called pull down assay. In this format, the GTP-bound active state of the respective protein in a cell lysate is bound to an immobilized binding partner and detected with a monoclonal antibody (MAb) specifically directed against the protein in question. The amount of the GTP-bound active state can subsequently be quantified through suitable detection methods, including but not limited to Western blotting or luminescence detection.
# The lysate is added to a suitably immobilized p21-binding domain (PBD) of p21-activated protein kinase (PAK) and the amount of activated Rac1 is quantified with a Rac1-specific MAb.
# HUVECs are grown to confluence under standard conditions. Before induction of Rac1 activity HUVECs were starved for 4 h by using IMDM (Gibco) without growth factor and serum supplements. Rac1 activity is induced by adding 50 μg/ml of test compound into starvation medium for 1, 5 and 10 min. Active Rac1 was isolated using Rac1/Cdc42 Assay Reagent from Upstate according to manufactures instructions. Isolates were separated on a 15% polyacrylamid gel and blotted on Nitrocellulose-Membranes (Bio-Rad). Rac1 was detected by using Anti-Rac1 clone23A8, anti-mouse from Upstate (1:250).
# FAK = assay: Thrombin induced FAK phosphorylation at autophosphorylation site Tyr397 in HUVEC (immunoprecipitation / western blot); conditions: substance alone, compound 50 μg/ml, thrombin 1 U/ml
# Procedure: For measuring the inhibition of thrombin meditated FAK phosphorylation in HUVECs, the cells are incubated under suitable conditions with a suitable amount of thrombin with and without the test compound for various periods of time up to 60 min and lysed afterwards lysates were subjected to SDS-PAGE and western blot analysis with site-specific antibodies directed against FAK phosphorylated tyrosine residues.
# HUVEC were incubated with FX06 (50 μg/ml), Thrombin (1 U/ml, Sigma Aldrich) and Thrombin/test compound for indicated time points. After washing with ice cold PBS (GIBCO), cells were scrapped in Tris-lysis buffer (plus 1% Triton X (Bio-Rad), NP40 (Sigma Aldrich) and proteinase and phosphatase inhibitory cocktails (Sigma Aldrich)) from culture flasks and lysed for 20 min on ice. Lysates were heavily vortexed every 5 min. After lysis lysates were centrifuged (15.000 rpm/10 min/4° C.) and supernatants were added to 50 μl sepahrose beads (Sigma Aldrich) preincubated with 1 μg total FAK antibody (BD Transduction Laboratories). Beads were agitated on the wheel for 2 h at 4° C., followed by 3 times washing with ice cold PBS, the addition of 2× sample buffer and incubation at 95° C. for 5 min. The sample buffer was then removed from the beads and applied to western blotting.
# 10% polyacrylamide gels were run for separating precipitated proteins. Gels were blotted onto PVDF (Bio-Rad) membranes using the hoefer semi dry blotting system. Membranes were then washed with TBS/0.5% TWEEN (TBST), blocked with 1% BSA/TBST for 1 h at RT and then incubated with the p397 FAK antibody (0.2 μg/ml; BD Transduction Laboratories) in 1% BSA/TBST over night at 4° C. For detection, a HRP-labeled goat anti-mouse Ab (1:25 000; Bio-Rad) in TBST was used and bound Abs were visualized by chemiluminescence (ECL-system, Amersham Corp., Arlington Heights, Ill.) and recorded on film.
# RhoA = assay: Thrombin induced RhoA activation pull-down assay in HUVEC; conditions: substance alone, thrombin 5 U/ml
# Description: as §1
# The lysate is added to a suitably immobilized rhotekin-binding domain (RBD) and the signal measured with an appropriate detection method.
# HUVEC are grown to confluence under standard conditions. Before induction of Rho activity HUVEC were starved for 4 h by using IMDM (Gibco) without growth factor and serum supplements. After the starvation period 5 U/ml Thrombin (Calbiochem) or 5 U thrombin plus 50 μg/ml of test compound are added to the starvation medium for 1, 5 and 10 min. Active RhoA was isolated using Rho Assay Reagent from Upstate according to manufactures instructions. Isolates were separated on a 15% polyacrylamid gel and blotted on Nitrocellulose-Membrane (Bio-Rad). RhoA was detected by using Anti-Rho (-A, -B, -C), clone55 from Upstate (1:500).
substance,measurement,setting,value
thrombin,"Active Rac1, relative values compared to unstimulated control",Rac1; 1 min,0.5 +/− 0.2*
same,"Active Rac1, relative values compared to unstimulated control",Rac1; 5 min,0.5 +/− 0.2*
same,"Active Rac1, relative values compared to unstimulated control",Rac1; 10 min,1 +/− 0.1
same,"FAK phosphorylation (p397), relative values compared to unstimulated control",FAK; 1 min,4.5 +/− 0.2*
same,"FAK phosphorylation (p397), relative values compared to unstimulated control",FAK; 5 min,4.5 +/− 0.2*
same,"FAK phosphorylation (p397), relative values compared to unstimulated control",FAK; 10 min,3.8 +/− 0.1*
same,"Active RhoA, relative values compared to unstimulated control",RhoA; 1 min,2.5 +/− 0.2*
same,"Active RhoA, relative values compared to unstimulated control",RhoA; 5 min,2.5 +/− 0.2*
same,"Active RhoA, relative values compared to unstimulated control",RhoA; 10 min,1 +/− 0.2
